Patent US7728012B2, “Carboxamide compounds and their use as calpain inhibitors” (Abbott GmbH & Co. KG, priority 2006, dated 2010)

How the values were obtained:
Format in all cases: biochemical
[1] = target: T1, calpain-I isolated from human erythrocytes (Homo sapiens, UniProt P07384); assay: Calpain I kinetic fluorescence enzyme inhibition assay; conditions: apparent Ki from IC50 by Cheng-Prussoff; average of 2 to 4 dose-effect plots
T1 construct: calpain-I—isolated from human erythrocytes; purchased Calbiochem 208713; host or cells: human erythrocytes (tissue isolate)
T1 sequence (P07384 1-714): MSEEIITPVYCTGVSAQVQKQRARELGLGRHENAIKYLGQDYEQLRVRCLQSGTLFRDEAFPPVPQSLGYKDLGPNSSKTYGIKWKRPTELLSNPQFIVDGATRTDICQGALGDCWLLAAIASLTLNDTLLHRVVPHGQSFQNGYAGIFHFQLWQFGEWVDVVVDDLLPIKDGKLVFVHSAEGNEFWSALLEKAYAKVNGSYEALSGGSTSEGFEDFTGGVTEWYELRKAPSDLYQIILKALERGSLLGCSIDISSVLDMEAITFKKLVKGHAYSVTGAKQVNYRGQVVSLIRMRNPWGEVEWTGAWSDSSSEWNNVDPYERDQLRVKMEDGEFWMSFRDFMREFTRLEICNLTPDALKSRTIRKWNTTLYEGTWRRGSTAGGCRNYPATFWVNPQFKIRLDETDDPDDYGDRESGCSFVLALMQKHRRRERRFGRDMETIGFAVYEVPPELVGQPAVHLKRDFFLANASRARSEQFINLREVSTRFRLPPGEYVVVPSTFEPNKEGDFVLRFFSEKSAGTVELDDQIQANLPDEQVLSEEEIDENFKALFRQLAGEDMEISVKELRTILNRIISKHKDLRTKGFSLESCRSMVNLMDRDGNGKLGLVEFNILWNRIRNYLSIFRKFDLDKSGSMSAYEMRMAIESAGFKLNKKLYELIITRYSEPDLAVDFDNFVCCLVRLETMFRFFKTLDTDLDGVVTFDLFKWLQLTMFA
T1 sequence (P04632 1-268 partner): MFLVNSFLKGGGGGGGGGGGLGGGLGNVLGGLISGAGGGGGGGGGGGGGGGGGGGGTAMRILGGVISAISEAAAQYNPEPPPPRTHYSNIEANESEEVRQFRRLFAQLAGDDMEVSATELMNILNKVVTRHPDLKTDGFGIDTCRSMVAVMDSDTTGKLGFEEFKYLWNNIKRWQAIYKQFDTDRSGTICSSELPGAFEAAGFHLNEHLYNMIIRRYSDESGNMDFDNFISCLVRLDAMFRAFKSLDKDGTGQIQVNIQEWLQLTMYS

[2] = target: T2, cathepsin B isolated from human liver (Homo sapiens, UniProt P07858); assay: Cathepsin B kinetic fluorescence enzyme inhibition assay; conditions: selectivity ratio versus calpain I
T2 construct: cathepsin B—isolated from human liver; purchased Calbiochem 219362; host or cells: human liver (tissue isolate)
Method: (§1) The following solutions and buffers were employed: • HBS (for 40 ml): 800 μl M HEPES; 2.16 ml 100 mM KCl; 4.8 ml 1M NaCl; 3.59 ml 5% glucose; 60 μl μM MgSO4; 400 μl 100 mM Na pyruvate, 28.19 ml water; pH 7.2-7.5. • lysis buffer (for 20 ml): 400 μl M Tris pH 8.2; 2.74 ml 1M NaCl; 520 μl 0.5M EDTA; 2 ml 10% triton X-100; 0.8 ml (=1:25) CompletePlus (1 tablet/2 ml H2O); 200 μl 100 mM Pefabloc; 13.34 ml water, pH 8.2. • TBST (10×) (for 1 l): 100 mM Tris (12.1 g); 1.5M NaCl (87 g); 1% Tween 20 (10 g), adjusted to pH 8. I Enzyme Inhibition In Vitro: • Testing for blockade of the corresponding enzymic activities was carried out by means of kinetic fluorescence assays (excitation 390 nm, emission 460 nm). • Apparent Ki values were calculated from the experimentally determined IC50 values by the Cheng-Prussoff relation assuming a reversible competitive enzyme inhibition. The Km values of the substrates used under the assay conditions indicated above were: 90 μM (Z-Phe-Arg-AMC, cathepsin B), 10 μM (Z-Gly-Pro-Arg-AMC, cathepsin K), 2 μM (Z-Phe-Arg-AMC, cathepsin L), and 30 μM (Z-Val-Val-Arg-AMC, cathepsin S). • The indicated Ki values are averages of the inhibition constants calculated on the basis of 2 to 4 independent dose-effect plots.
(§2) The following assays were used: • 1. Calpain I: • 20 nM calpain-I—isolated from human erythrocytes (Calbiochem #208713), 100 μM Suc-Leu-Tyr-AMC (Bachem #1-1355) as substrate in buffer with 62 mM imidazole, 0.3 mM CaCl2, 0.10% CHAPS, 0.05% BSA, 1 mM DTT at pH 7.3 and room temperature. • 2. Cathepsin B: • 0.25 nM cathepsin B—isolated from human liver (Calbiochem #219362), 100 μM Z-Phe-Arg-AMC (Bachem #I-1160) as substrate 50 mM MES, 2 mM EDTA, 0.05% Brij 35, 2.5 mM L-cysteine, pH 6.0, room temperature. • 3. Cathepsin K: • 3 nM cathepsin K—activated from recombinant human procathepsin K from E. coli (Calbiochem #342001), 10 μM Z-Gly-Pro-Arg-AMC (Biomol #P-142) as substrate in 50 mM MES, 2 mM EDTA, 0.05% Brij 35, 2.5 mM L-cysteine, pH 6.0, room temperature. • 4. Cathepsin L: • 1 nM cathepsin L—isolated from human liver (Calbiochem #219402), 2 μM Z-Phe-Arg-AMC (Bachem #1-1160) as substrate in 50 mM MES, 2 mM EDTA, 0.05% Brij 35, 2.5 mM L-cysteine, pH 6.0, room temperature. • 5. Cathepsin S: • 0.5 nM recombinant human cathepsin S from E. coli (Calbiochem #219343), 20 μM Z-Val-Val-Arg-AMC (Bachem #1-1540) as substrate in 50 mM MES, 2 mM EDTA, 0.05% Brij 35, 2.5 mM L-cysteine, pH 6.0, room temperature. • The results of the in vitro determination are indicated in Table 1. The following abbreviations are used in Table 1: • The “Calpain activity” column, ++ stands for a calpain Ki (Ki(calpain)) of ≦40 nM and + means: 40 nM<Ki(Calpain)≦100 nM. • The “Sel. cat. B” column indicates the Ki(cathepsin B)/Ki(calpain) ratio. In this connection, ++ means a Ki(cathepsin B)/Ki(calpain) ratio of ≧30 and + means 10≦Ki(cathepsin B)/Ki(calpain)<30. • The “Sel. cat. K” column indicates the Ki(cathepsin K)/Ki(calpain) ratio. In this connection, ++ means a Ki(cathepsin K)/Ki(calpain) ratio of ≧30 and + means 10≦Ki(cathepsin K)/Ki(calpain)<30. • The “Sel. cat. L” column indicates the Ki(cathepsin L)/Ki(calpain) ratio. In this connection, ++ means a Ki(cathepsin L)/Ki(calpain) ratio of ≧50 and + means 30≦Ki(cathepsin L)/Ki(calpain)<50. • The “Sel. cat. S” column indicates the Ki(cathepsin S)/Ki(calpain) ratio. In this connection, ++ means a Ki(cathepsin S)/Ki(calpain) ratio of ≧100 and + means 50≦Ki(cathepsin S)/Ki(calpain)<100.

[3] = target: T3, recombinant human cathepsin S (Homo sapiens, UniProt P25774); assay: Cathepsin S kinetic fluorescence enzyme inhibition assay; conditions: selectivity ratio versus calpain I
T3 construct: purchased Calbiochem 219343; host or cells: E. coli
T3 sequence (P25774 115-331): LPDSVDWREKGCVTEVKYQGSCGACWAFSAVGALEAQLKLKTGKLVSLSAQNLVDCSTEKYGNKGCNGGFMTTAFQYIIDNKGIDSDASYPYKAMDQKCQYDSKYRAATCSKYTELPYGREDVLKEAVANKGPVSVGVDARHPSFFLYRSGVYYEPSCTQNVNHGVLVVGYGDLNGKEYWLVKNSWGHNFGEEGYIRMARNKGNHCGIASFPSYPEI
Outline: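 cat B 0.25 nM + Z-Phe-Arg-AMC 100 μM; cat L 1 nM + Z-Phe-Arg-AMC 2 μM; cat S 0.5 nM (E. coli-expressed) + Z-Val-Val-Arg-AMC 20 μM. 50 mM MES pH 6.0, 2.5 mM L-Cys, RT. Ex 390/em 460, kinetic; Ki app = Cheng-Prusoff from IC50, mean of 2–4 curves.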

[4] = target: T4, cathepsin L isolated from human liver (Homo sapiens, UniProt P07711); assay: Cathepsin L kinetic fluorescence enzyme inhibition assay; conditions: selectivity ratio versus calpain I
T4 construct: cathepsin L—isolated from human liver; purchased Calbiochem 219402; host or cells: human liver (tissue isolate)
T4 sequence (P07711 114-333): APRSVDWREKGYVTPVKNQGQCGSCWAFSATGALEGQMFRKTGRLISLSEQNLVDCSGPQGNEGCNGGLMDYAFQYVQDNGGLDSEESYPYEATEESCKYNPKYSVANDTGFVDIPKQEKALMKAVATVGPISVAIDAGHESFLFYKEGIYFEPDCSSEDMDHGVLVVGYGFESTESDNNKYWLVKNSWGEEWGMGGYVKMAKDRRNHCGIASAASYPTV
Method: as §1, §2

CCCCC(NC(=O)c1cc(Cl)cnc1-n1ccc(-c2ccccc2)n1)C(=O)C(N)=O (stereo not drawn) [Example 28, N-{1-[Amino(oxo)acetyl]pentyl}-5-chloro-2-(3-phenyl-1H-pyrazol-1-yl)nicotinamide]
Ki [1]: ≤ 0.04 µM
Sel cat. B (Ki(cathepsin B)/Ki(calpain) ratio) [2]: + (10≦Ki(cathepsin B)/Ki(calpain)<30)

CC(C)CC(NC(=O)c1cc(Cl)cnc1-n1ccc(-c2ccccc2)n1)C(=O)C(N)=O (stereo not drawn) [Example 32, N-{1-[Amino(oxo)acetyl]-3-methylbutyl}-5-chloro-2-(3-phenyl-1H-pyrazol-1-yl)nicotinamide]
Ki [1]: ≤ 0.04 µM
Sel cat. B (Ki(cathepsin B)/Ki(calpain) ratio) [2]: + (10≦Ki(cathepsin B)/Ki(calpain)<30)

CCCCC(NC(=O)c1cccnc1-n1ccc(-c2ccc(N3CCOCC3)cc2)n1)C(=O)C(N)=O (stereo not drawn) [Example 33, N-{1-[Amino(oxo)acetyl]pentyl}-2-[3-(4-morpholin-4-ylphenyl)-1H-pyrazol-1-yl]nicotinamide]
Ki [1]: ≤ 0.04 µM
Sel cat. B (Ki(cathepsin B)/Ki(calpain) ratio) [2]: + (10≦Ki(cathepsin B)/Ki(calpain)<30)
Sel cat. S (Ki(cathepsin S)/Ki(calpain) ratio) [3]: + (50≦Ki(cathepsin S)/Ki(calpain)<100)

Cc1cc(-c2ccccc2)nn1-c1ncccc1C(=O)NC(Cc1ccccc1)C(=O)C(N)=O (stereo not drawn) [Example 61, N-(3-Amino-1-benzyl-2,3-dioxopropyl)-2-(5-methyl-3-phenyl-1H-pyrazol-1-yl)nicotinamide]
Sel cat. B (Ki(cathepsin B)/Ki(calpain) ratio) [2]: + (10≦Ki(cathepsin B)/Ki(calpain)<30)
Sel cat. S (Ki(cathepsin S)/Ki(calpain) ratio) [3]: ++ (Ki(cathepsin S)/Ki(calpain) ratio of ≧100)

N#Cc1ccc(-c2ccn(-c3ncccc3C(=O)NC(Cc3ccccc3)C(=O)C(N)=O)n2)cc1 (stereo not drawn) [Example 62, N-(3-Amino-1-benzyl-2,3-dioxopropyl)-2-[3-(4-cyanophenyl)-1H-pyrazol-1-yl]nicotinamide]
Ki [1]: 0.04 to 0.1 µM
Sel cat. L (Ki(cathepsin L)/Ki(calpain) ratio) [4]: ++ (Ki(cathepsin L)/Ki(calpain) ratio of ≧50)
Sel cat. S (Ki(cathepsin S)/Ki(calpain) ratio) [3]: ++ (Ki(cathepsin S)/Ki(calpain) ratio of ≧100)

NC(=O)C(=O)C(Cc1ccccc1)NC(=O)c1cccnc1-n1ccc(-c2ccc(N3CCCCC3)cc2)n1 (stereo not drawn) [Example 64, N-(3-Amino-1-benzyl-2,3-dioxopropyl)-2-[3-(4-piperidin-1-ylphenyl)-1H-pyrazol-1-yl]nicotinamide]
Ki [1]: ≤ 0.04 µM
Sel cat. B (Ki(cathepsin B)/Ki(calpain) ratio) [2]: + (10≦Ki(cathepsin B)/Ki(calpain)<30)
Sel cat. S (Ki(cathepsin S)/Ki(calpain) ratio) [3]: ++ (Ki(cathepsin S)/Ki(calpain) ratio of ≧100)

NC(=O)C(=O)C(Cc1ccccc1)NC(=O)c1cccnc1-n1cc2ccccc2n1 (stereo not drawn) [Example 78, N-(3-Amino-1-benzyl-2,3-dioxopropyl)-2-(2H-indazol-2-yl)nicotinamide]
Ki [1]: 0.04 to 0.1 µM
Sel cat. L (Ki(cathepsin L)/Ki(calpain) ratio) [4]: ++ (Ki(cathepsin L)/Ki(calpain) ratio of ≧50)
Sel cat. S (Ki(cathepsin S)/Ki(calpain) ratio) [3]: + (50≦Ki(cathepsin S)/Ki(calpain)<100)

NC(=O)C(=O)C(Cc1ccccc1)NC(=O)c1ccccc1-n1ccc(-c2ccccc2)n1 (stereo not drawn) [Example 106, N-[3-Amino-2,3-dioxo-1-(phenylmethyl)propyl]-2-(3-phenyl-1H-pyrazol-1-yl)benzamide]
Ki [1]: ≤ 0.04 µM
Sel cat. L (Ki(cathepsin L)/Ki(calpain) ratio) [4]: + (30≦Ki(cathepsin L)/Ki(calpain)<50)
Sel cat. S (Ki(cathepsin S)/Ki(calpain) ratio) [3]: ++ (Ki(cathepsin S)/Ki(calpain) ratio of ≧100)

NC(=O)C(=O)C(Cc1ccccc1)NC(=O)c1cccnc1-n1cc2c(n1)-c1ccccc1OCC2 (stereo not drawn) [Example 141, N-[3-Amino-2,3-dioxo-1-(phenylmethyl)propyl]-2-(4,5-dihydro-2H-[1]benzoxepino[5,4-c]pyrazol-2-yl)pyridine-3-carboxamide]
Ki [1]: 0.04 to 0.1 µM
Sel cat. L (Ki(cathepsin L)/Ki(calpain) ratio) [4]: ++ (Ki(cathepsin L)/Ki(calpain) ratio of ≧50)
Sel cat. S (Ki(cathepsin S)/Ki(calpain) ratio) [3]: ++ (Ki(cathepsin S)/Ki(calpain) ratio of ≧100)

NC(=O)C(=O)C(Cc1ccccc1)NC(=O)c1cccnc1-n1ccc(-c2cccc3cnccc23)n1 (stereo not drawn) [Example 156, N-[3-Amino-2,3-dioxo-1-(phenylmethyl)propyl]-2-(3-isoquinolin-5-yl-1H-pyrazol-1-yl)pyridine-3-carboxamide]
Sel cat. B (Ki(cathepsin B)/Ki(calpain) ratio) [2]: + (10≦Ki(cathepsin B)/Ki(calpain)<30)
Sel cat. L (Ki(cathepsin L)/Ki(calpain) ratio) [4]: + (30≦Ki(cathepsin L)/Ki(calpain)<50)
Sel cat. S (Ki(cathepsin S)/Ki(calpain) ratio) [3]: ++ (Ki(cathepsin S)/Ki(calpain) ratio of ≧100)

CS(=O)(=O)NCc1cn(-c2ncccc2C(=O)NC(Cc2ccccc2)C(=O)C(N)=O)nc1-c1ccc(F)cc1 (stereo not drawn) [Example 187, N-[3-Amino-2,3-dioxo-1-(phenylmethyl)propyl]-2-[3-(4-fluorophenyl)-4-{[(methylsulfonyl)amino]methyl}-1H-pyrazol-1-yl]pyridine-3-carboxamide]
Ki [1]: 0.04 to 0.1 µM
Sel cat. L (Ki(cathepsin L)/Ki(calpain) ratio) [4]: + (30≦Ki(cathepsin L)/Ki(calpain)<50)
Sel cat. S (Ki(cathepsin S)/Ki(calpain) ratio) [3]: ++ (Ki(cathepsin S)/Ki(calpain) ratio of ≧100)
